# In US20080193530A1 (priority 2007, published 2008):
# “Also recorded” adds a separate entry of the source.
# System: glycosylated hemoglobin level (HbA1C)
# Assay: Clinical study of ranolazine (IV dose, then oral sustained release) vs placebo in patients having coronary disease: HbA1C
# Format: in vivo, human
# Description: Baseline is in-hospital visit prior to hospitalization.
# [1] = Diabetes at enrollment, ranolazine group (n = 1098), Month 16
# [2] = No Diabetes at enrollment, ranolazine group (n = 2170), Final Visit
# [3] = No Diabetes at enrollment, ranolazine group (n = 2170), Month 4
# [4] = No Diabetes at enrollment, ranolazine group (n = 2170), Month 8
# [5] = No Diabetes at enrollment, ranolazine group (n = 2170), Month 16
compound,measurement,setting,value
"COc1ccccc1OCC(O)CN1CCN(CC(=O)Nc2c(C)cccc2C)CC1 (racemic) [Ranolazine, (±)-N-(2,6-dimethylphenyl)-4-[2-hydroxy-3-(2-methoxyphenoxy)-propyl]-1-piperazineacetamide]",Proportion of patients with HbA1c ≧7% by diabetes at enrollment,"Diabetes at enrollment, ranolazine group (n = 1098), Baseline",57%
same,Proportion of patients with HbA1c ≧7% by diabetes at enrollment,"Diabetes at enrollment, ranolazine group (n = 1098), Final Visit",42%
same,Proportion of patients with HbA1c ≧7% by diabetes at enrollment,"Diabetes at enrollment, ranolazine group (n = 1098), Month 4",41%
same,Proportion of patients with HbA1c ≧7% by diabetes at enrollment,"Diabetes at enrollment, ranolazine group (n = 1098), Month 8",44%
same,Number of patients with HbA1c ≧7% by diabetes at enrollment,[1],63
same,Proportion of patients with HbA1c ≧7% by diabetes at enrollment,[1],48%
same,Proportion of patients with HbA1c ≧7% by diabetes at enrollment,"No Diabetes at enrollment, ranolazine group (n = 2170), Baseline",6%
same,Number of patients with HbA1c ≧7% by diabetes at enrollment,[2],92
same,Proportion of patients with HbA1c ≧7% by diabetes at enrollment,[2],6%
same,Number of patients with HbA1c ≧7% by diabetes at enrollment,[3],78
same,Proportion of patients with HbA1c ≧7% by diabetes at enrollment,[3],5%
same,Number of patients with HbA1c ≧7% by diabetes at enrollment,[4],72
same,Proportion of patients with HbA1c ≧7% by diabetes at enrollment,[4],6%
same,Number of patients with HbA1c ≧7% by diabetes at enrollment,[5],21
same,Proportion of patients with HbA1c ≧7% by diabetes at enrollment,[5],7%
same,Effect on serum HbA1c levels (FIGS. 1 and 2),all patients treated,HbA1c lowering effect on all patients treated; also recorded: significantly lowers serum HbA1C levels
same,Number of patients with HbA1C ≧7%,"all patients, ranolazine group (n = 3268), Month 16",84
same,Effect on HbA1c levels (FIG. 2),diabetic patients treated with ranolazine,reduction in the amount of HbA1C levels
same,Effect on HbA1c levels (FIG. 2),non-diabetic patients treated with ranolazine,reduction in the amount of HbA1C levels
